Laboratory results as given in patent US20250325677A1, “STAT6 DEGRADERS” (Gilead Sciences, Inc., priority 2024, published 2025).
pEC50: −log10 of the molar value. Where two headings read alike, the source gives them in different places.

Key:
STAT6 = STAT6 (Homo sapiens (Human), UniProt P42226); test: STAT6 degrader assay (HiBiT, HeLa LgBiT clone 4.14); type: cell-based
In short: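 DC50 (nM) comes from luminescence of non-degraded STAT6 read 0.5 h after Nano-GLO addition, following 4-24 h compound exposure at 37° C. Cells were HeLa clone 4.14 expressing LgBiT with a CRISPR HiBiT tag on endogenous STAT6; 50 μM terfenadine set full degradation.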

eotaxin-3 release = test: Human whole blood eotaxin-3 assay (IL-4 stimulated); type: cell-based; conditions: for pEC50: human whole blood, IL-4 0.4 nM, 48 hours, geometric mean, given for compounds with >80% Emax, read-out: Eotaxin-3 EC50
In short: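 Human whole blood was preincubated with compound for 120 min at 37 °C, then stimulated with recombinant human IL-4 (E. coli) at 0.4 nM final for 48 h. Inhibition of eotaxin-3 release gave EC50 values.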

[1] = HeLa LgBiT clone 4.14, 4-24 h; geometric mean; given for compounds with >80% Emax; read-out: STAT6 degradation DC50

Chain of STAT6 (P42226 whole entry): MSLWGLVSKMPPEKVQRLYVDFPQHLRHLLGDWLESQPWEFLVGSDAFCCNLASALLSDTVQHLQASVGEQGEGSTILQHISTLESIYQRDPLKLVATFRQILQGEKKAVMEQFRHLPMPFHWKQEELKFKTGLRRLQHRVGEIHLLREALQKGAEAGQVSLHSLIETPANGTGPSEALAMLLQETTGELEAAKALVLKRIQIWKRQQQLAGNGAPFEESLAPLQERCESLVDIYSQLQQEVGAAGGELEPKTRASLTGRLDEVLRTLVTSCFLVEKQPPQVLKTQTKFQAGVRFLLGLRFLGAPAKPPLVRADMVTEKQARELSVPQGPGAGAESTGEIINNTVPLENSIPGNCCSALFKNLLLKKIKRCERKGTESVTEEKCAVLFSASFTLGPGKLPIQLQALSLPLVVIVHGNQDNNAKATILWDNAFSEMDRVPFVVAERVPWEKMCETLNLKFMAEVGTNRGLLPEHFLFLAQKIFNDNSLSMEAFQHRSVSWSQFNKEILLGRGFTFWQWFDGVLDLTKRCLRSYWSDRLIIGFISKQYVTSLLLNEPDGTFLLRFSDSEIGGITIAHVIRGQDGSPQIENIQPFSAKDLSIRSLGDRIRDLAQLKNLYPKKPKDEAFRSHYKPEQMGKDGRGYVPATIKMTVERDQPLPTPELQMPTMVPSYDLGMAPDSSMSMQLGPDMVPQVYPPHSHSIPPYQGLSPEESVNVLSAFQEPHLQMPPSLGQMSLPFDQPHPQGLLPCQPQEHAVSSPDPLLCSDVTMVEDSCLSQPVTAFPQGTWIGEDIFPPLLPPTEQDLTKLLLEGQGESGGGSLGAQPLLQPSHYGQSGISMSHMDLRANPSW

Row | SMILES | DC50 (STAT6; [1]) | pEC50 (eotaxin-3 release) | Emax (STAT6; HeLa LgBiT clone 4.14, 4-24 h; read-out: STAT6 degradation Emax (%)) | DC50 (STAT6; read-out: STAT6 degradation DC50; HeLa LgBiT clone 4.14, 4-24 h; geometric mean; given for compounds with >80% Emax) | EC50 (eotaxin-3 release; Homo sapiens, 48 h, read-out: Eotaxin-3 EC50 (nM))
1 | C[C@@H](c1cc2c(-c3ccc(N)nc3)ccnc2n1C)N1CCC(c2ccc(C(=O)N3CCC(CN4CCN(Cc5cc6c(cc5F)n(C5CCC(=O)NC5=O)c(=O)n6C)CC4)CC3)cc2)CC1 (stereo partly drawn) [Example 3e33, 3-(5-((4-((1-(4-(1-((S)-1-(4-(6-aminopyridin-3-yl)-1-methyl-1H-pyrrolo[2,3-b]pyridin-2-yl)ethyl)piperidin-4-yl)benzoyl)piperidin-4-yl)methyl)piperazin-1-yl)methyl)-6-fluoro-3-methyl-2-oxo-2,3-dihydro-1H-benzo[d]imidazol-1-yl)piperidine-2,6-dione] | 1.8 nM | 8.31 | – | – | –
2 | C[C@@H](c1cc2c(-c3ccc(N)nc3)ccnc2n1C)N1CCC(c2ccc(C(=O)N3CCC(CN4CCN(Cc5cc6c(cc5F)n(C5CCC(=O)NC5=O)c(=O)n6C5CC5)CC4)CC3)cc2)CC1 (stereo partly drawn) [Example 3e35, 3-(5-((4-((1-(4-(1-((S)-1-(4-(6-aminopyridin-3-yl)-1-methyl-1H-pyrrolo[2,3-b]pyridin-2-yl)ethyl)piperidin-4-yl)benzoyl)piperidin-4-yl)methyl)piperazin-1-yl)methyl)-3-cyclopropyl-6-fluoro-2-oxo-2,3-dihydro-1H-benzo[d]imidazol-1-yl)piperidine-2,6-dione] | 3.2 nM | 8.10 | – | – | –
3 | C[C@@H](c1cc2c(-c3ccc(N)nc3)ccnc2n1C)N1CCC(c2ccc(C(=O)N3CCC(CN4CCN(Cc5ccc6c(c5)n(CCO)c(=O)n6C5CCC(=O)NC5=O)CC4)CC3)cc2)CC1 (stereo partly drawn) [Example 3e36, 3-(5-((4-((1-(4-(1-((S)-1-(4-(6-aminopyridin-3-yl)-1-methyl-1H-pyrrolo[2,3-b]pyridin-2-yl)ethyl)piperidin-4-yl)benzoyl)piperidin-4-yl)methyl)piperazin-1-yl)methyl)-3-(2-hydroxyethyl)-2-oxo-2,3-dihydro-1H-benzo[d]imidazol-1-yl)piperidine-2,6-dione] | – | 7.63 | 70 to 80% | – | –
4 | C[C@H]1CN(Cc2ccc3c(c2)n(C)c(=O)n3C2CCC(=O)NC2=O)CCN1CC1CCN(C(=O)c2ccc(C3CCN([C@@H](C)c4cc5c(-c6ccc7[nH]c(=O)n(C)c7c6)ccnc5n4C)CC3)cc2)CC1 (stereo partly drawn) [Example 3e37, 3-(3-methyl-5-(((S)-3-methyl-4-((1-(4-(1-((S)-1-(1-methyl-4-(3-methyl-2-oxo-2,3-dihydro-1H-benzo[d]imidazol-5-yl)-1H-pyrrolo[2,3-b]pyridin-2-yl)ethyl)piperidin-4-yl)benzoyl)piperidin-4-yl)methyl)piperazin-1-yl)methyl)-2-oxo-2,3-dihydro-1H-benzo[d]imidazol-1-yl)piperidine-2,6-dione] | 0.2 nM | 8.85 | – | – | –
5 | C[C@H]1CN(Cc2ccc3c(c2)n(C)c(=O)n3C2CCC(=O)NC2=O)CCN1CC1CCN(C(=O)c2ccc(C3CCN([C@@H](C)c4cc5c(-c6ncc(N)cc6F)ccnc5n4C)CC3)cc2)CC1 (stereo partly drawn) [Example 3e38, 3-(5-(((S)-4-((1-(4-(1-((S)-1-(4-(5-amino-3-fluoropyridin-2-yl)-1-methyl-1H-pyrrolo[2,3-b]pyridin-2-yl)ethyl)piperidin-4-yl)benzoyl)piperidin-4-yl)methyl)-3-methylpiperazin-1-yl)methyl)-3-methyl-2-oxo-2,3-dihydro-1H-benzo[d]imidazol-1-yl)piperidine-2,6-dione] | 1 nM | 8.11 | – | – | –
6 | C[C@H]1CN(Cc2ccc3c(c2)n(C)c(=O)n3C2CCC(=O)NC2=O)CCN1CC1CCN(C(=O)c2ccc(C3CCN([C@@H](C)c4cc5c(-c6ccc(NCCO)nc6)ccnc5n4C)CC3)cc2)CC1 (stereo partly drawn) [Example 3e40, 3-(5-(((S)-4-((1-(4-(1-((S)-1-(4-(6-((2-hydroxyethyl)amino)pyridin-3-yl)-1-methyl-1H-pyrrolo[2,3-b]pyridin-2-yl)ethyl)piperidin-4-yl)benzoyl)piperidin-4-yl)methyl)-3-methylpiperazin-1-yl)methyl)-3-methyl-2-oxo-2,3-dihydro-1H-benzo[d]imidazol-1-yl)piperidine-2,6-dione] | 0.5 nM | 8.42 | – | – | –
7 | COc1nc(N)ccc1-c1ccnc2c1cc([C@H](C)N1CCC(c3ccc(C(=O)N4CCC(CN5CCN(Cc6ccc7c(c6)n(C)c(=O)n7C6CCC(=O)NC6=O)C[C@@H]5C)CC4)cc3)CC1)n2C (stereo partly drawn) [Example 3e41, 3-(5-(((S)-4-((1-(4-(1-((S)-1-(4-(6-amino-2-methoxypyridin-3-yl)-1-methyl-1H-pyrrolo[2,3-b]pyridin-2-yl)ethyl)piperidin-4-yl)benzoyl)piperidin-4-yl)methyl)-3-methylpiperazin-1-yl)methyl)-3-methyl-2-oxo-2,3-dihydro-1H-benzo[d]imidazol-1-yl)piperidine-2,6-dione] | 0.2 nM | 9.10 | – | – | –
8 | C[C@@H](c1cc2c(-c3ccc(N)nc3)ccnc2n1C)N1CCC(c2ccc(C(=O)N3CCC(CN4CCN(Cc5ccc6c(c5)n(C)c(=O)n6C5CCC(=O)NC5=O)C[C@@H]4C(F)(F)F)CC3)cc2)CC1 (stereo partly drawn) [Example 3e42, 3-(5-(((R)-4-((1-(4-(1-((S)-1-(4-(6-aminopyridin-3-yl)-1-methyl-1H-pyrrolo[2,3-b]pyridin-2-yl)-ethyl)piperidin-4-yl)benzoyl)piperidin-4-yl)methyl)-3-(trifluoromethyl)piperazin-1-yl)methyl)-3-methyl-2-oxo-2,3-dihydro-1H-benzo[d]imidazol-1-yl)piperidine-2,6-dione] | 1.8 nM | 8.47 | – | – | –
9 | C[C@@H](c1cc2c(-c3ccc(N)nc3)ccnc2n1C)N1CCC(c2ccc(C(=O)N3CCC(CN4CCN(Cc5ccc6c(c5)n(C)c(=O)n6C5CCC(=O)NC5=O)C[C@H]4C(F)(F)F)CC3)cc2)CC1 (stereo partly drawn) [Example 3e43, 3-(5-(((S)-4-((1-(4-(1-((S)-1-(4-(6-aminopyridin-3-yl)-1-methyl-1H-pyrrolo[2,3-b]pyridin-2-yl)ethyl)piperidin-4-yl)benzoyl)piperidin-4-yl)methyl)-3-(trifluoro-methyl)piperazin-1-yl)methyl)-3-methyl-2-oxo-2,3-dihydro-1H-benzo[d]imidazol-1-yl)piperidine-2,6-dione] | 2.8 nM | 8.34 | – | – | –
10 | C[C@H]1CN(Cc2ccc3c(c2)n(C)c(=O)n3C2CCC(=O)NC2=O)CCN1CC1(F)CCN(C(=O)c2ccc(C3CCN([C@@H](C)c4cc5c(-c6ccc(N)nc6)ccnc5n4C)CC3)cc2)CC1 (stereo partly drawn) [Example 3e45, 3-(5-(((S)-4-((1-(4-(1-((S)-1-(4-(6-aminopyridin-3-yl)-1-methyl-1H-pyrrolo[2,3-b]pyridin-2-yl)ethyl)piperidin-4-yl)benzoyl)-4-fluoropiperidin-4-yl)methyl)-3-methylpiperazin-1-yl)methyl)-3-methyl-2-oxo-2,3-dihydro-1H-benzo[d]imidazol-1-yl)piperidine-2,6-dione] | 0.8 nM | 8.68 | – | – | –
11 | C[C@H]1CN(Cc2ccc3c(c2)n(C)c(=O)n3C2CCC(=O)NC2=O)CCN1CC1CCN(C(=O)c2ccc(C3CCN([C@@H](C)c4cc5c(-c6cnc(N)c(F)c6)ccnc5n4C)CC3)cc2)CC1 (stereo partly drawn) [Example 3e47, 3-(5-(((S)-4-((1-(4-(1-((S)-1-(4-(6-amino-5-fluoropyridin-3-yl)-1-methyl-1H-pyrrolo[2,3-b]pyridin-2-yl)ethyl)piperidin-4-yl)benzoyl)piperidin-4-yl)methyl)-3-methylpiperazin-1-yl)methyl)-3-methyl-2-oxo-2,3-dihydro-1H-benzo[d]imidazol-1-yl)piperidine-2,6-dione] | 2.2 nM | 8.31 | – | – | –
12 | C[C@H]1CN(Cc2ccc3c(c2)n(C)c(=O)n3C2CCC(=O)NC2=O)CCN1CC1CCN(C(=O)c2ccc(C3CCN([C@@H](C)c4cc5c(-c6ccc(N)nn6)ccnc5n4C)CC3)cc2)CC1 (stereo partly drawn) [Example 3e52, 3-(5-(((S)-4-((1-(4-(1-((S)-1-(4-(6-aminopyridazin-3-yl)-1-methyl-1H-pyrrolo[2,3-b]pyridin-2-yl)ethyl)piperidin-4-yl)benzoyl)piperidin-4-yl)methyl)-3-methylpiperazin-1-yl)methyl)-3-methyl-2-oxo-2,3-dihydro-1H-benzo[d]imidazol-1-yl)piperidine-2,6-dione] | – | – | – | 0.9 nM | 1.5 nM
13 | C[C@@H](c1cc2c(-c3ccc(N)nc3)ccnc2n1C)N1CCC(c2ccc(C(=O)N3CCC(CN4CCN(Cc5ccc6c(c5)n(CC5CC5)c(=O)n6C5CCC(=O)NC5=O)CC4)CC3)cc2)CC1 (stereo partly drawn) [Example 3e53, 3-(5-((4-((1-(4-(1-((S)-1-(4-(6-aminopyridin-3-yl)-1-methyl-1H-pyrrolo[2,3-b]pyridin-2-yl)ethyl)piperidin-4-yl)benzoyl)piperidin-4-yl)methyl)piperazin-1-yl)methyl)-3-(cyclopropylmethyl)-2-oxo-2,3-dihydro-1H-benzo[d]imidazol-1-yl)piperidine-2,6-dione] | 1.9 nM | 8.12 | – | – | –
14 | C[C@H]1CN(Cc2ccc3c(c2)n(CC2CC2)c(=O)n3C2CCC(=O)NC2=O)CCN1CC1CCN(C(=O)c2ccc(C3CCN([C@@H](C)c4cc5c(-c6ccc(N)nc6)ccnc5n4C)CC3)cc2)CC1 (stereo partly drawn) [Example 3e54, 3-(5-(((S)-4-((1-(4-(1-((S)-1-(4-(6-aminopyridin-3-yl)-1-methyl-1H-pyrrolo[2,3-b]pyridin-2-yl)ethyl)piperidin-4-yl)benzoyl)piperidin-4-yl)methyl)-3-methylpiperazin-1-yl)methyl)-3-(cyclo-propylmethyl)-2-oxo-2,3-dihydro-1H-benzo[d]imidazol-1-yl)piperidine-2,6-dione] | 0.7 nM | 8.44 | – | – | –
